# Like-named read-outs stand apart in the source and are kept apart here.
# Key:
# [1] = tested on: intracellular L. infantum amastigotes; test: Intracellular assay in infected THP-1-derived macrophages; format: cell-based, Leishmania infantum; conditions: for IC50: 48 h; for Selectivity index Intracellular: SI = CC50/IC50
# Experimental: (§1) L. infantum promastigotes were grown at 26 °C in Schneider medium (Sigma), supplemented with 20% heat-inactivated fetal bovine serum (Sigma) and 1% penicillin-streptomycin (Sigma). To ensure maintenance of virulence, the parasites were serially passed through BALB/c mice. THP-1 cells were cultured in RPMI-1640 medium (Sigma-Aldrich), supplemented with 10% heat-inactivated SFB (Sigma) and 1% penicillin-streptomycin (Life Technologies), maintained at a density of 10^6 cells/mL, and incubated at 37 °C in a 5% CO2 atmosphere. For differentiation, THP-1 cells were seeded in 96-well culture plates at a concentration of 1 × 10^4 cells/well and treated with 100 ng/mL of […] (PMA, Sigma-Aldrich) and incubated for 48 h at 37 °C and 5% CO2. Cell viability was previously assessed using the Trypan Blue exclusion method. […] Differentiated THP-1 cells were washed with nonsupplemented RPMI-1640 and given fresh medium without PMA. The cells were rested for 24 h before further treatment.
# THP-1 cells differentiated in 96-well culture plates were infected with promastigotes in the stationary phase at a ratio of 30 parasites: 1 cell for 4 h at 37 °C in a final volume of 100 μL. The noninternalized parasites were then removed by washing with RPMI-1640 medium. The compounds were diluted at concentrations of 200–0.7 μM in 100 μL of culture medium per well for serial dilution. Subsequently, 100 μL of the diluted compounds was added to the infected THP-1 cells and incubated for 48 h, with each condition tested in technical replicates (≥2 wells per condition). The number of intracellular parasites per 100 macrophages was counted using light microscopy. The infection rate was determined in relation to the mean of the control wells. The IC50 values were determined independently in three separate experiments by fitting concentration–response curves to a 4PL model in GraphPad Prism v10.
# [2] = tested on: L. infantum promastigotes; test: Promastigote assay (resazurin viability); format: cell-based, Leishmania infantum; conditions: for IC50: Leishmania infantum, 48 h, read-out: L. infantum IC50 Promastigotes; for Selectivity index Promastigotes: SI = CC50/IC50
# Experimental: as §1
# To evaluate the effect of prioritized compounds on parasite viability, 4 × 10^6 promastigotes/mL were incubated in the presence of a series of 11 points (0.1% DMSO) for 48 h at 28 °C to a final volume of 200 μL in a 96-well microplate, with each condition tested in technical replicates (≥2 wells per condition). Next, 20 μL of resazurin solution (0.39 mM) was added to each well and incubated for 4 h, and then fluorescence was recorded (570 nmex/595 nmem) on a microplate reader SpectraMax M5 (Molecular Devices, Sunnyvale, CA). The IC50 values were determined in three independent experiments by fitting concentration–response curves using nonlinear regression with a four-parameter logistic (4PL) model in GraphPad Prism v10.
# [3] = Cytotoxicity assay (resazurin); format: cell-based; conditions: human, THP-1 cells, pH 7.4
# Experimental: as §1
# THP-1 cells were cultured in 96-well plates at a density of 1 × 10^4 cells per well in 100 μL of RPMI 1640 medium supplemented with 10% heat-inactivated fetal bovine serum (FBS) and 25 mM HEPES (pH 7.4). Cultures were maintained at 37 °C in a humidified atmosphere containing 5% CO2. After 24 h of incubation, the test compounds were prepared in serial dilutions in complete medium, starting at a concentration of 200 μM. Subsequently, 100 μL of each diluted compound solution was added to the corresponding wells containing the cells, with each concentration tested in duplicate wells. Following a 72 h incubation period, resazurin solution (Sigma) was added to each well at a final concentration of 20 μM, and plates were incubated for an additional 4 h under the same conditions. Fluorescence was measured using a SpectraMax M5 microplate reader (Molecular Devices, Sunnyvale, CA, USA) with an excitation wavelength of 570 nm and an emission wavelength of 595 nm.
# [4] = Parallel artificial membrane permeability assay (PAMPA); format: in vitro ADME; conditions: donor pH 6.5, acceptor pH 7.4, 5 h, 37 °C; for Papp at 5 h, 10 μM: PAMPA, read-out: PAMPA Pe
# Experimental: (§2) ADME profiling was conducted using liquid chromatography coupled with tandem mass spectrometry (LC–MS/MS).
# Each well is divided into two chambers, donor and acceptor, separated by a triple-layer phospholipid membrane constructed on a porous filter. Solutions of the compounds are prepared by diluting their respective stock solutions (10 mM in DMSO) in phosphate-buffered saline (PBS) at pH 6.5, yielding a final concentration of 10 μM (<1% DMSO, v/v). The solutions are then added to the donor portion of the plate (300 μL/well) in triplicate, while the acceptor portion received only PBS pH 7.4 (200 μL/well). The donor and acceptor portions are subsequently assembled, and the system is incubated for 5 h at 37 °C and 100 rpm. […] After the incubation period, samples are collected from the donor (10 μL) and acceptor (80 μL) wells and added to the analysis plate containing stop solution (300 μL) and PBS buffer pH 6.5 (60 μL). Final compound concentrations in the donor, acceptor, and Tzero wells are quantified by LC-MS/MS. The chromatogram for analysis was achieved on Supelco Ascentis express C18 column (3 cm × 2.1 mm, 5 μM). The mobile phases consisted of water +0.1% formic acid (A) and acetonitrile +0.1% formic acid (B). […] The results were used to calculate an effective permeability (Pe) value. All PAMPA assay was performed in triplicates.
# [5] = Mouse liver microsomal stability assay; format: in vitro ADME; conditions: CD1, mouse, mouse liver microsomes, pH 7.4, 0.25 mg/mL protein; for microsomal CLint at 0.5 μM: read-out: MLM CLint; for half-life at 0.5 μM: read-out: MLM T 1/2
# Experimental: as §2
# Compounds were diluted to a final concentration of 0.5 μM and incubated with microsomal protein at 0.25 mg/mL in phosphate-buffered saline (PBS) at pH 7.4. The DMSO content in the incubation mixture was maintained below 1%. The metabolic reaction was initiated by introducing NADPH as a cofactor at a concentration of […]. Aliquots were taken at defined time intervals: 0 (immediately after NADPH addition), 5, 10, 20, 30, and 60 min. Reactions were halted by the addition of a quenching solvent consisting of a 1:1 mixture of acetonitrile and methanol containing an internal standard at 50 nM. Following quenching, samples were centrifuged at 3500 rpm for 30 min to pellet the precipitated microsomal proteins. The resulting supernatants were analyzed via LC–MS/MS. Quantification was performed based on the peak area ratio (PAR) of the analyte to internal standard, with the signal at time zero defined as 100%. The percentage of parent compound remaining at each time point was calculated accordingly. Using the plot of % remaining versus incubation time, the degradation rate constant (k) was determined via nonlinear regression. […] Chromatographic analysis was carried out using a Supelco Ascentis Express C18 column (3 cm × 2.1 mm, 5 μm particle size). The mobile phases were composed of water with 0.1% formic acid (A) and acetonitrile with 0.1% formic acid (B). […] All metabolic stability assays were conducted in triplicate.
# [6] = Experimental determination of distribution coefficient (eLogD), chromatographic; format: physicochemical; conditions: Supelco Ascentis Express RP Amide HPLC column; pH 7.4, chromatographic retention method
# Experimental: as §2
# The eLogD was carried out using a chromatographic method based on the analyte retention times within a stationary phase. Separation was performed on a Supelco Ascentis Express RP Amide high-performance liquid chromatography (HPLC) column (5 cm × 2.1 mm, 2.7 μm particle size), utilizing a binary mobile phase system composed of 5% methanol in 10 mM ammonium acetate buffer at pH 7.4 (designated as solvent A), and pure methanol (solvent B). […] The injection volume for each sample was 5 μL. Test compounds were diluted to a concentration of 1.0 mg/mL in a 1:1 mixture of mobile phases A and B, containing an internal standard at 200 nM. Final DMSO concentration was kept below 2%. […] A calibration curve was generated by plotting the retention times of these standards against their corresponding eLogD values. The linear regression equation (y = mx + b) obtained from this curve was then used to calculate the eLogD of each test compound.
# [7] = tested on: intracellular L. infantum amastigotes; design: method as in PMID 39334981; conditions: clinical comparators, cited from earlier work; for IC50: read-out: IC50 against intracellular L. infantum amastigotes
# [8] = design: method as in PMID 39334981; conditions: clinical comparators; read-out: CC50 (cytotoxicity); cited from earlier work
# [9] = Leishmania infantum, Macrophage, THP-1-derived macrophages infected with L. infantum, read-out: L. infantum IC50 Intracellular
# [10] = Leishmania infantum, Macrophage, read-out: L. infantum IC50 Intracellular, THP-1-derived macrophages infected with L. infantum, 48 h
# [11] = THP-1-derived macrophages infected with L. infantum, read-out: L. infantum IC50 Intracellular
SMILES,Selectivity index Intracellular [1],IC50 ([2]; resazurin) [µM],Selectivity index Promastigotes [2],CC50 at 72 h [3] [µM],other results
O=C(Cc1ccccc1)NC(c1ccc(Cl)cc1)c1cccnc1 (centres unmarked) [LC-66],>2.46,3.18 ± 0.72,>31.4,> 100,"IC50 [1, 9]: 40.5 ± 58.7 µM"
CC(C)N1CCC(C(=O)NC(c2ccc(Cl)cc2)c2cccnc2)CC1 (centres unmarked) [LC-70],,> 20,,,
O=C(Nc1ccc(Cl)cn1)N1CCCCC1c1cccnc1 (centres unmarked) [LC-74],,0.49 ± 0.07,,> 200,"Papp at 5 h, 10 μM [4]: 10.8 ×10⁻⁶ cm/s; microsomal CLint at 0.5 μM [5]: 27.2 µL/min/mg; half-life at 0.5 μM [5]: 1.7 h; chromatographic logD [6]: 2.39"
Fc1ccc(N2CCC(NCC(c3cccnc3)N3CCCCC3)CC2)cc1F (centres unmarked) [LC-62],>24.7,9.62 ± 0.98,>10.4,> 100,
Cn1nnc2cc(NC(=O)N3CCCCC3c3cccnc3)ccc21 (centres unmarked) [LC-72],,> 20,,,
Cc1ccccc1CN1CCC(CN(Cc2cccnc2)Cc2cc(CC(C)C)[nH]n2)CC1 [LC-58],4.48,7.85 ± 0.64,4.45,35 ± 5.2,"IC50 [1, 9]: 7.81 ± 4.13 µM"
Cc1ccccc1CN1CCC(CN(Cc2cccnc2)Cc2nc(C(C)C)cs2)CC1 [LC-64],4.13,3.95 ± 0.42,7.03,27.8 ± 3.59,"IC50 [1, 9]: 6.72 ± 5.79 µM"
Cc1ccc(C)c(-c2nc(NC(=O)C3CC3)sc2C)c1 [LC-69],,> 20,,,
C[C@@H]1[C@H](O)[C@@H](C)/C=C/C=C/C=C/C=C/C=C/C=C/C=C/[C@H](O[C@@H]2O[C@H](C)[C@@H](O)[C@H](N)[C@@H]2O)C[C@@H]2O[C@](O)(C[C@@H](O)C[C@@H](O)[C@H](O)CC[C@@H](O)C[C@@H](O)CC(=O)O[C@H]1C)C[C@H](O)[C@H]2C(=O)O [Amphotericin B],,,,,SI [7]: 8.6; IC50 [7]: 0.14 µM; CC50 [8]: 1.2 µM
Cc1cc(F)ccc1N1CCC(NC(Cn2ccnc2)c2ccccc2)CC1 (centres unmarked) [LC-60],,0.43 ± 0.05,,40.8 ± 28.2,"Papp at 5 h, 10 μM [4]: 6.36 ×10⁻⁶ cm/s; microsomal CLint at 0.5 μM [5]: 120 µL/min/mg; half-life at 0.5 μM [5]: 0.386 h; chromatographic logD [6]: 4.45"
Fc1cccc(CN(Cc2cccnc2)CC2CCCN(C3CCCCC3)C2)c1 (centres unmarked) [LC-63],,,7.26,32.9 ± 5.22,"IC50 [1, 10]: 11.5 ± 24 µM; IC50 [2]: 4.53 ± 0.8 µM"
O=C1OCc2ccc(NC(=O)N3CCCCC3c3cccnc3)cc21 (centres unmarked) [LC-71],>20.5,11.7 ± 2.86,>17.1,> 200,"IC50 [1, 10]: < 10 µM; IC50 [1, 11]: 9.76 ± 10.2 µM"
OC(COc1ccc(Br)cc1)Cn1ccnc1 (centres unmarked) [LC-75],>14.8,10.5 ± 1.26,>9.52,> 100,"IC50 [1, 10]: < 10 µM; IC50 [1, 11]: 6.73 ± 3.27 µM"
O=C(C(c1cccnc1)N1CCOCC1)N1CCCN(Cc2ccc(F)cc2)CC1 (centres unmarked) [LC-65],,,,> 245,"IC50 [1, 10]: > 55.5 µM; IC50 [2]: 3.59 ± 0.53 µM"
CCc1nc(C)c(C(=O)NCC(c2cccnc2)N2CCCCC2)s1 (centres unmarked) [LC-59],,> 20,,,
CCCCCCCCCCCCCCCCOP(=O)([O-])OCC[N+](C)(C)C [miltefosine],,,,,SI [7]: 138; IC50 [7]: 0.37 µM; CC50 [8]: 51.1 µM
O=C(NCCc1cnc[nH]1)c1cc(-c2ccccc2)nc2ccccc12 [LC-67],,> 20,,,
Cc1ccc(C)c(-c2nc(NC(=O)c3ccncc3)sc2C)c1 [LC-68],,> 20,,,
CC(C)n1cc(C(=O)NC(c2ccc(Cl)cc2)c2cccnc2)cn1 (centres unmarked) [LC-73],,> 20,,,
CCCCC(NC1CCN(c2ccccc2F)CC1)c1cccnc1 (centres unmarked) [LC-61],,0.037 ± 0.002,,157 ± 20.7,"Papp at 5 h, 10 μM [4]: 4.86 ×10⁻⁶ cm/s; PAMPA Pe [4]: 4.86 10^–6 cm/s; chromatographic logD [6]: 4.07"

# Source: PMC13080969 (Journal of Chemical Information and Modeling, 2026)
